This experiment relates to MDA-MB-231 breast cancer cells. Nature of the experiment: cell-exclusion migration assay (aqueous two-phase system patterning, 96-well plate). It is filed as cell-based, human. The following applies: MDA-MB-231 cells; for effect on motility/migration of cells (in words): blebbistatin 5-200 μM for 18 hrs, then another 12 hrs in culture medium before imaging. Here is the method:
6.4% (w/w) solution of the DEX 500K phase was prepared in culture media and kept at 4° C. until use. The tip magazine of an automated liquid handler (CyBi-Well, CyBio) was loaded with 96 sterile 25 μl pipette tips (CyBio). 75 μl of the DEX solution was pipetted into each well of a 96-well microplate (Corning), which was then placed on the stage of the liquid handler. To load pipette tips with the DEX solution, the stage was slowly raised until the pipette tips were slightly inside the DEX solution. 10 μl of the DEX solution was aspirated into the tips at a rate of 5 μl/s. The loaded tips were brought within 200 μm of the bottom of the wells of an empty microplate and 0.8 μl of the DEX solution was dispensed onto the surface at a rate of 0.5 μl/s to form circular droplets. The microplate was kept in a culture hood for at least 24 hrs to allow the droplets to dry. Images of the dried droplets were captured using a bright-field microscope (Nikon, TS-200). The Feret diameters of the droplets were determined using the “Analyze Particles” function of ImageJ (NIH). Droplets whose Feret diameters were not within ˜1% of the desired mean diameter were excluded from use in the assay. The entire printing and drying process was performed in a sterile culture hood.
Three different human cancer cell lines were used: MDA-MB-231 breast cancer cells (ATCC) were cultured in DMEM medium supplemented with 10% heat-inactivated fetal bovine serum (HI-FBS, Invitrogen), 1% glutamine (Invitrogen), and 1% antibiotic. A549 lung cancer cells (ATCC) were cultured using F-12K medium (ATCC) supplemented with 10% HI-FBS and 1% antibiotic. PC-3 prostate cancer cells were maintained in DMEM supplemented with 10% HI-FBS and 1% antibiotic. Cells were maintained in a cell culture incubator at 37° C. with 5% CO2 and 95% humidity. When at desired confluence, cells were washed with PBS and Hank's-based enzyme-free cell dissociation buffer was added to the flask. Cells were incubated for 30 min and then collected and suspended in complete growth medium. After centrifuging down for 5 min at 4° C. and 1000 rpm, cells were resuspended in appropriate volume of the culture medium to give a density of 2×10^6 cells/ml.
5.0% (w/w) solution of the PEG 35K phase was prepared in culture media and kept at 4° C. until use. This solution was added to the cell suspension at a 1:1 (v/v) ratio to give a final PEG phase concentration of 2.5%. Prior to this step, cell suspension density was adjusted by addition of culture media to result in a final density of 4.5×10^4 MDA-MB-231 cells, 4.0×10^4 A549 cells, and 4.5×10^4 PC-3 cells after addition of the PEG-containing media. These cell densities were selected from preliminary experiments that evaluated the number of cells required to form a confluent monolayer per unit surface area. 80 μl of the resulting solution was added to each well of a 96-well plate, which was incubated at 37° C. with 5% CO2 and 95% humidity overnight (12 hrs). Then, the two-phase media was washed out and replaced with regular culture media. This was set as the time zero of the migration experiment.
After allowing MDA-MB-231 cells to spread and form a confluent monolayer around the cell excluded gaps, they were treated with (±)-blebbistatin at different concentrations in the range 5-200 μM or anti-cancer drugs paclitaxel, colchicine, and nocodazole in the concentration range of 1-1000 nM. Cells were incubated for 18 hrs in the presence of blebbistatin, washed with PBS once, and regular culture medium was added. Incubation continued for another 12 hrs before imaging. To study the effect of anti-cancer drugs, cells were incubated with each drug for 2 hrs, washed with PBS, and then supplied with culture medium. Imaging was performed after 30 hrs of incubation. Experiments were set in 30 replicates. All reagents were purchased from Sigma.
After migration experiments were complete, cells were stained with a 5 μM Calcein AM and the plates were incubated at 37° C. for 30 min. […]

The mark [1] stands for this setting: 2 hr treatment, tested 1-1000 nM, imaging after 30 hrs.

Regarding `COc1cc2c(c(OC)c1OC)-c1ccc(OC)c(=O)cc1[C@@H](NC(C)=O)CC2` [colchicine], the “effect on cell motility (in words)” value (2 hr treatment, tested 1-1000 nM, imaging after 30 hrs, especially above 100 nM) is recorded as “reduced cell motility in a dose-dependent manner”.

For the molecule `Cc1ccc2c(c1)C(=O)C1(O)CCN(c3ccccc3)C1=N2` (racemic) [blebbistatin, (±)-blebbistatin], the “effect on motility/migration of cells (in words)” value was “dose-dependent response”. Moreover, the “effect on motility/migration of cells (in words)” value (listed as Blebbistatin) is listed as “dose-dependent inhibition”. In addition, the IC50 (six concentrations 5-200 μM for 18 hrs, BioDataFit software, read-out: IC50 for inhibition of cell migration) was 31.8 µM. As to `COC(=O)Nc1nc2ccc(C(=O)c3cccs3)cc2[nH]1` [Nocodazole, nocodazole], under setting [1], the reduction of migration entry is listed as “less than 20%”. On to `CC(=O)O[C@H]1C(=O)[C@@]2(C)[C@H]([C@H](OC(=O)c3ccccc3)[C@]3(O)C[C@H](OC(=O)[C@H](O)[C@@H](NC(=O)c4ccccc4)c4ccccc4)C(C)=C1C3(C)C)[C@]1(OC(C)=O)CO[C@@H]1C[C@@H]2O` [Paclitaxel, paclitaxel], for which the “concentration range showing potency for inhibiting cell motility” value under setting [1] lay in the range of 10 to 100 nM.

(Values after patent US9244057B2, “Multiphase microarrays and uses thereof” (THE REGENTS OF THE UNIVERSITY OF MICHIGAN, priority 2010, dated 2016).)
